# From paper PMC6478789, “A chemical toolbox for the study of bromodomains and epigenetic signaling” (Nature Communications, 2019)
# Like-named read-outs stand apart in the source and are kept apart here.
# What was measured:
# ASH1L = molecular target: T1, ASH1L (Homo sapiens, UniProt Q9NR48); assay: Methyl transferase scintillation proximity assay; type: biochemical; details: average of two measurements, read-out: MTases Inhibition (%)
# T1 construct: purchased DiscoverX BROMOscan (bromodomains); SGC in-house methyltransferase panel
# Method: (§1) Assays measuring lysine and arginine methyl transferase activity have been described in Scheer et al.. A radioactivity-based scintillation proximity assay was used to monitor incorporation of a tritium-labeled methyl group into the biotinylated substrate of the methyl transferase. A 10-μl reaction containing ^3H-SAM and substrate at concentrations close to the apparent Km values for each enzyme was prepared. The reactions were quenched with 10 μl of 7.5 M guanidine hydrochloride; 180 μl of 20 mM Tris buffer (pH 8.0) were added; and the mixture was transferred to a 96-well FlashPlate and incubated for 1 h. The counts per minute (CPM) was measured on a TopCount plate reader. The CPM in the absence of compound or enzyme was defined as 100% activity and background (0%), respectively, for each dataset.
# DNMT1 = molecular target: T2, DNMT1 (Homo sapiens, UniProt P26358); assay: Methyl transferase scintillation proximity assay; type: biochemical; details: average of two measurements, read-out: MTases Inhibition (%)
# T2 construct: purchased DiscoverX BROMOscan (bromodomains); SGC in-house methyltransferase panel
# T2 sequence (P26358 whole entry): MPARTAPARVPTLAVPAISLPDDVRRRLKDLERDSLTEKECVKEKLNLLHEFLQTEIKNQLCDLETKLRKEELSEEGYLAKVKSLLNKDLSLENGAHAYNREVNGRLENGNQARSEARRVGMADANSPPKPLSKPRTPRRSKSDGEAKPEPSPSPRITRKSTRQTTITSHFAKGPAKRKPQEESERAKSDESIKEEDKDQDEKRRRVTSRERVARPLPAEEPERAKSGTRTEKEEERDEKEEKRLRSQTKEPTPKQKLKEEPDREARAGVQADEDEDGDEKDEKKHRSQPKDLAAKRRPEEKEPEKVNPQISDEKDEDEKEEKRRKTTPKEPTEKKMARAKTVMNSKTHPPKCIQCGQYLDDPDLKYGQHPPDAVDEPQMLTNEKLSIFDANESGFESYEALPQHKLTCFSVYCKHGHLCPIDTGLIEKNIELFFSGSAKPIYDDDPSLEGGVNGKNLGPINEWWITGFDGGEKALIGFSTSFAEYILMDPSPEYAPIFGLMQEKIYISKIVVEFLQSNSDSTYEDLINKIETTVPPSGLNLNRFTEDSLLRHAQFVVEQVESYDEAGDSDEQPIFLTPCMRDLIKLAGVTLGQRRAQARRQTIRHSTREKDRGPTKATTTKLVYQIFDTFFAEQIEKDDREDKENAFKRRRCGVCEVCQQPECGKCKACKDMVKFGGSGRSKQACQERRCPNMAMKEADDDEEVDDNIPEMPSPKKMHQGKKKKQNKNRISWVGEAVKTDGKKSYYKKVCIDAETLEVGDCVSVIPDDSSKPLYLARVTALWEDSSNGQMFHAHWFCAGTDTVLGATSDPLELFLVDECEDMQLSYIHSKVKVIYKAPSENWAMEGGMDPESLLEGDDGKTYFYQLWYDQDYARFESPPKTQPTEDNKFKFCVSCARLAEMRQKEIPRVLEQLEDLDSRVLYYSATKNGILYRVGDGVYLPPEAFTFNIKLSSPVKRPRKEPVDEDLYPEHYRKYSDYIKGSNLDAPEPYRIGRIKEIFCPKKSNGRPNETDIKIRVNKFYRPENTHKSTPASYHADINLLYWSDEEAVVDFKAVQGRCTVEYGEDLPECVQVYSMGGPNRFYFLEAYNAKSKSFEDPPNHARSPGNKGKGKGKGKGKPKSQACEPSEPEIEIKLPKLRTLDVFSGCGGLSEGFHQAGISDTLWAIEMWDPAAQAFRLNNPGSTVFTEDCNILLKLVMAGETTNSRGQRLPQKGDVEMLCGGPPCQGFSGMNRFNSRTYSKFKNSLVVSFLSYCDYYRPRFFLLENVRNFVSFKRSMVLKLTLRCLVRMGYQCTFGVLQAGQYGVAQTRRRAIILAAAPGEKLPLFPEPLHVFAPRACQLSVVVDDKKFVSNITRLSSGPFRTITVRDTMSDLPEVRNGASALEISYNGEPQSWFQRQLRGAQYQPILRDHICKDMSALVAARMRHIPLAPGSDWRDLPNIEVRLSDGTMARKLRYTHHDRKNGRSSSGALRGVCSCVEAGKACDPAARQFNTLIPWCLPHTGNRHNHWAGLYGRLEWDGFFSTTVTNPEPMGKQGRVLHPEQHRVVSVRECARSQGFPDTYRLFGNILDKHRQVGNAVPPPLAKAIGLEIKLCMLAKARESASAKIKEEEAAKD
# Method: as §1
# DNMT3A/3L = molecular target: T3, DNMT3A/3L (Homo sapiens, UniProt Q9Y6K1); assay: Methyl transferase scintillation proximity assay; type: biochemical; details: average of two measurements, read-out: MTases Inhibition (%)
# T3 construct: purchased DiscoverX BROMOscan (bromodomains); SGC in-house methyltransferase panel
# Method: as §1
# DNMT3B/3L = molecular target: T4, DNMT3B/3L (Homo sapiens, UniProt Q9UBC3); assay: Methyl transferase scintillation proximity assay; type: biochemical; details: average of two measurements, read-out: MTases Inhibition (%)
# T4 construct: purchased DiscoverX BROMOscan (bromodomains); SGC in-house methyltransferase panel
# Method: as §1
# DOT1L = molecular target: T5, DOT1L (Homo sapiens, UniProt Q8TEK3); assay: Methyl transferase scintillation proximity assay; type: biochemical; details: average of two measurements, read-out: MTases Inhibition (%)
# T5 construct: purchased DiscoverX BROMOscan (bromodomains); SGC in-house methyltransferase panel
# Method: as §1
# MLL1 (Trimeric) = molecular target: T6, MLL1 (Trimeric) (Homo sapiens, UniProt Q03164); assay: Methyl transferase scintillation proximity assay; type: biochemical; details: average of two measurements, read-out: MTases Inhibition (%)
# T6 construct: purchased DiscoverX BROMOscan (bromodomains); SGC in-house methyltransferase panel
# Method: as §1
# MLL3 (pentameric) = molecular target: T7, MLL3 (pentameric) (Homo sapiens, UniProt Q8NEZ4); assay: Methyl transferase scintillation proximity assay; type: biochemical; details: average of two measurements, read-out: MTases Inhibition (%)
# T7 construct: purchased DiscoverX BROMOscan (bromodomains); SGC in-house methyltransferase panel
# Method: as §1
# PRDM9 = molecular target: T8, PRDM9 (Homo sapiens, UniProt Q9NQV7); assay: Methyl transferase scintillation proximity assay; type: biochemical; details: average of two measurements, read-out: MTases Inhibition (%)
# T8 construct: purchased DiscoverX BROMOscan (bromodomains); SGC in-house methyltransferase panel
# T8 sequence (Q9NQV7 whole entry): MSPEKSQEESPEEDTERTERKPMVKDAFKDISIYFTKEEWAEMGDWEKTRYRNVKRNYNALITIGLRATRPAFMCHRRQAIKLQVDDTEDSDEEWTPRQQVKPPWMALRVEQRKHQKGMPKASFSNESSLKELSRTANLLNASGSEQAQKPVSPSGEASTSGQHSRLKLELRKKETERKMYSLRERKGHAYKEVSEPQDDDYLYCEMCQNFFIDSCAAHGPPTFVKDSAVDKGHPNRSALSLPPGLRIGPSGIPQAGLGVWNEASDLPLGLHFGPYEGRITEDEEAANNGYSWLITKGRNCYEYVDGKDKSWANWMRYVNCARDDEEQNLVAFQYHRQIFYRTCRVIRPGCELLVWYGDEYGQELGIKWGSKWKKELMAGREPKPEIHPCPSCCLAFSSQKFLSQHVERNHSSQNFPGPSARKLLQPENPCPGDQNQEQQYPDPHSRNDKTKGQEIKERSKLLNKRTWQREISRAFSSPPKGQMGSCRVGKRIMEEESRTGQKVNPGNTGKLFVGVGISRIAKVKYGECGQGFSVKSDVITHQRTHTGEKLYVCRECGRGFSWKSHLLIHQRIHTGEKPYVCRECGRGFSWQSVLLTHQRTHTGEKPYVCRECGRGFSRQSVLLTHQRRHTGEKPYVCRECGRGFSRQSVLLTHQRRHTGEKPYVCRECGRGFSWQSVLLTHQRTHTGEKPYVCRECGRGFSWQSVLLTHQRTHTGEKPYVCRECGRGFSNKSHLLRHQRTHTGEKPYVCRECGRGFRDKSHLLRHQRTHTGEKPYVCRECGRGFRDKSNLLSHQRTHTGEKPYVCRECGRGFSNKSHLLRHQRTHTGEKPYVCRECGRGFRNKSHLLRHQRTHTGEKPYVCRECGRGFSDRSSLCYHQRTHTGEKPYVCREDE
# Method: as §1
# PRMT3 = molecular target: T9, PRMT3 (Homo sapiens, UniProt O60678); assay: Methyl transferase scintillation proximity assay; type: biochemical; details: average of two measurements, read-out: MTases Inhibition (%)
# T9 construct: purchased DiscoverX BROMOscan (bromodomains); SGC in-house methyltransferase panel
# T9 sequence (O60678 whole entry): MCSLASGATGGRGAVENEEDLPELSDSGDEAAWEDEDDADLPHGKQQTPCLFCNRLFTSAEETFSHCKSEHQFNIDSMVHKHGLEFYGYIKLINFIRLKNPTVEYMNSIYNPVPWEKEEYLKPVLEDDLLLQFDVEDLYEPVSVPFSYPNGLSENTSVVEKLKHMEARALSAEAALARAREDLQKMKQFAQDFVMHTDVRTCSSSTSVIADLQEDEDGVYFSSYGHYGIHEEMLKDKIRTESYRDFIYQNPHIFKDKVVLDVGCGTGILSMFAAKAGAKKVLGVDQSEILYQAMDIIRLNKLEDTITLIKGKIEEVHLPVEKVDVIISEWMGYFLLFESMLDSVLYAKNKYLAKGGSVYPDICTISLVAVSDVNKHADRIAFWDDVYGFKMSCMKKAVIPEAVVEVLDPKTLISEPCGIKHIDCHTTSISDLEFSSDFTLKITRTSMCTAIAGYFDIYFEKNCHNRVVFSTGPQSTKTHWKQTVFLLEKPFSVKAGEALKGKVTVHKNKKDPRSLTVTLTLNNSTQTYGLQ
# Method: as §1
# PRMT8 = molecular target: T10, PRMT8 (Homo sapiens, UniProt Q9NR22); assay: Methyl transferase scintillation proximity assay; type: biochemical; details: average of two measurements, read-out: MTases Inhibition (%)
# T10 construct: purchased DiscoverX BROMOscan (bromodomains); SGC in-house methyltransferase panel
# Method: as §1
# SETD8 = molecular target: T11, SETD8 (Homo sapiens, UniProt Q9NQR1); assay: Methyl transferase scintillation proximity assay; type: biochemical; details: average of two measurements, read-out: MTases Inhibition (%)
# T11 construct: purchased DiscoverX BROMOscan (bromodomains); SGC in-house methyltransferase panel
# T11 sequence (Q9NQR1 1-393): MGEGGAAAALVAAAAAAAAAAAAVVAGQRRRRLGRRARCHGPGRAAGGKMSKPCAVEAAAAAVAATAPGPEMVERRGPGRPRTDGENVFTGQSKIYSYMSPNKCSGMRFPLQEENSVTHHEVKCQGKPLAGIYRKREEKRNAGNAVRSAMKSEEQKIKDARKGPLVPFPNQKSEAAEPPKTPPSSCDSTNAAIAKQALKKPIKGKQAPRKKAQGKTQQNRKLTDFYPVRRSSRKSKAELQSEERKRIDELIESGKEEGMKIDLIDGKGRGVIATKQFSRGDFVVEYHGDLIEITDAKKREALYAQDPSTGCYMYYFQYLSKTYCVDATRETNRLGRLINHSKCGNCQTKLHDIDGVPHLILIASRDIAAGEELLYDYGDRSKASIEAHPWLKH
# Method: as §1
# SETDB1 = molecular target: T12, SETDB1 (Homo sapiens, UniProt Q15047); assay: Methyl transferase scintillation proximity assay; type: biochemical; details: average of two measurements, read-out: MTases Inhibition (%)
# T12 construct: purchased DiscoverX BROMOscan (bromodomains); SGC in-house methyltransferase panel
# Method: as §1
# SUV39H1 = molecular target: T13, SUV39H1 (Homo sapiens, UniProt O43463); assay: Methyl transferase scintillation proximity assay; type: biochemical; details: average of two measurements, read-out: MTases Inhibition (%)
# T13 construct: purchased DiscoverX BROMOscan (bromodomains); SGC in-house methyltransferase panel
# T13 sequence (O43463 1-412): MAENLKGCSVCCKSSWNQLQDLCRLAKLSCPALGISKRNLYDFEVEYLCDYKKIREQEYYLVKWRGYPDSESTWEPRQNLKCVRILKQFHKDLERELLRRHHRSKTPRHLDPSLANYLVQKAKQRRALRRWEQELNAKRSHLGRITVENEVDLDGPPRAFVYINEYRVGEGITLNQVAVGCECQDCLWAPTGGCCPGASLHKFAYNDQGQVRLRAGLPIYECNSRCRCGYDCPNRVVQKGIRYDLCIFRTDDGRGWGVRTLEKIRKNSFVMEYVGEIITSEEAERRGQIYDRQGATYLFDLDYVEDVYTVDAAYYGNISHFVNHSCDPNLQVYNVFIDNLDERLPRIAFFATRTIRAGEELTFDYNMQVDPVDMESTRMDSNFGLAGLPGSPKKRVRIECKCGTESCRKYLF
# Method: as §1
# SUV39H2 = molecular target: T14, SUV39H2 (Homo sapiens, UniProt Q9H5I1); assay: Methyl transferase scintillation proximity assay; type: biochemical; details: average of two measurements, read-out: MTases Inhibition (%)
# T14 construct: purchased DiscoverX BROMOscan (bromodomains); SGC in-house methyltransferase panel
# T14 sequence (Q9H5I1 whole entry): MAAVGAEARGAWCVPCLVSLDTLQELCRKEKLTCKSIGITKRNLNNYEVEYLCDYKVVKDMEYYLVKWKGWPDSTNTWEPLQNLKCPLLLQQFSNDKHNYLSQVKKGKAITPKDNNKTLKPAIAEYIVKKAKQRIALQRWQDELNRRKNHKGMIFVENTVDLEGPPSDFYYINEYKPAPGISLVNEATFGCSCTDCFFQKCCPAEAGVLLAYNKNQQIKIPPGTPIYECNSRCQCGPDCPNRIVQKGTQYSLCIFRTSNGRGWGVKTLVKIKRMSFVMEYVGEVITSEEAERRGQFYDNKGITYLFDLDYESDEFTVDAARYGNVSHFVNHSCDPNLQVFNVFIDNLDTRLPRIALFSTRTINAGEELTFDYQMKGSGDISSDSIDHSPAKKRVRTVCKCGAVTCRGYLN
# Method: as §1
# SUV420H1 = molecular target: T15, SUV420H1 (Homo sapiens, UniProt Q4FZB7); assay: Methyl transferase scintillation proximity assay; type: biochemical; details: average of two measurements, read-out: MTases Inhibition (%)
# T15 construct: purchased DiscoverX BROMOscan (bromodomains); SGC in-house methyltransferase panel
# T15 sequence (Q4FZB7 whole entry): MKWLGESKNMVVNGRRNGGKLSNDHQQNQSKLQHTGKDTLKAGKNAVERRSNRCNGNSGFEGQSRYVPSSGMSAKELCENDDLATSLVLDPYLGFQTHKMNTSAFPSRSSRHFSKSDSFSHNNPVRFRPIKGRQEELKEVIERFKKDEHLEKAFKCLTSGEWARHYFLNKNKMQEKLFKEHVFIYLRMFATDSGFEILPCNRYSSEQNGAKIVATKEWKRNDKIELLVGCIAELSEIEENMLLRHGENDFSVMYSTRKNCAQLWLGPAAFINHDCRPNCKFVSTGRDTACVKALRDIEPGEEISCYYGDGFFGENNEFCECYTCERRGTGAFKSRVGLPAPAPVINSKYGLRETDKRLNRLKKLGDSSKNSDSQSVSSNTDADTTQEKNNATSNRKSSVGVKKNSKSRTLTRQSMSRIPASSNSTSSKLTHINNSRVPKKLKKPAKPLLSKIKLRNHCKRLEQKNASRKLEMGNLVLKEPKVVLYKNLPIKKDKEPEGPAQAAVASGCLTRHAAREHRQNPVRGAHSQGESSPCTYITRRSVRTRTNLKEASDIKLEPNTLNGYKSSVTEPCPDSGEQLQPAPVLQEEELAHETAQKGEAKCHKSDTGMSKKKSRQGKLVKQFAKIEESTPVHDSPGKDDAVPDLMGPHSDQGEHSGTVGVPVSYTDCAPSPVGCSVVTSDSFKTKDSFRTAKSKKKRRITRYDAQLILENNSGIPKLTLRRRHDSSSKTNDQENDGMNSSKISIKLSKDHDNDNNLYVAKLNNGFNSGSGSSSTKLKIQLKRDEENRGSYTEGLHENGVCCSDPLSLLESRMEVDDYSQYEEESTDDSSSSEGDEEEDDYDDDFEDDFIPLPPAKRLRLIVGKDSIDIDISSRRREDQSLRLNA
# Method: as §1
# SUV420H2 = molecular target: T16, SUV420H2 (Homo sapiens, UniProt Q86Y97); assay: Methyl transferase scintillation proximity assay; type: biochemical; details: average of two measurements, read-out: MTases Inhibition (%)
# T16 construct: purchased DiscoverX BROMOscan (bromodomains); SGC in-house methyltransferase panel
# T16 sequence (Q86Y97 whole entry): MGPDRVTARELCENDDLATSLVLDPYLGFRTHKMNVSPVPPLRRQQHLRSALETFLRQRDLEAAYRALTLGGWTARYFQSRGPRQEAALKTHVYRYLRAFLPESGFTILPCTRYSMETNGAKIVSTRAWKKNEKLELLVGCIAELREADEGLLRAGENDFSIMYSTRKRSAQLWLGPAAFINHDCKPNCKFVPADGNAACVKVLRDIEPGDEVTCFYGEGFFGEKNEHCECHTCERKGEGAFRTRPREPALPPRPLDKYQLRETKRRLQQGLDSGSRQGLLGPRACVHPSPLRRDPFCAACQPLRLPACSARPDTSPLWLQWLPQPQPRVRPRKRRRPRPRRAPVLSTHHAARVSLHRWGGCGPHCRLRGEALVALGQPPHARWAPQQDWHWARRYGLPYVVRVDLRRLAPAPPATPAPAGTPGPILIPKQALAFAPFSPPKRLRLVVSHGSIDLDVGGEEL
# Method: as §1
# ATAD2A = molecular target: T17, ATAD2A (Homo sapiens, UniProt Q6PL18); assay: BROMOscan ligand-binding assay
# T17 sequence (Q6PL18 980-1092 limits assumed): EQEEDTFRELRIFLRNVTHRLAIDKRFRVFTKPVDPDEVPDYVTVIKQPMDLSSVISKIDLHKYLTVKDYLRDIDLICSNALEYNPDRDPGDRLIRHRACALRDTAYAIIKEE
# From the text: (§2) BROMOscan is a binding assay based on the well-known KINOMEscan technology. This assay measures the binding of a DNA-tagged bromodomain to an immobilized BRD ligand. If an inhibitor is present, it will compete with the bromodomain binding to the immobilized ligand, resulting in reduction of a quantitative PCR (qPCR) signal in a dose-dependent manner.
# BRD2(1) = BRD2(1) (Homo sapiens, UniProt P25440); assay: BROMOscan ligand-binding assay
# BRD2(1), sequence (P25440 74-180 limits assumed): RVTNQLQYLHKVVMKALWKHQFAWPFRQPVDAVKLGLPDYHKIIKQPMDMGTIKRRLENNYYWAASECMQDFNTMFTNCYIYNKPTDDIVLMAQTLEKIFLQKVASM
# From the text: as §2
# WDR9(2) = WDR9(2) (Homo sapiens, UniProt Q9NSI6); assay: BROMOscan ligand-binding assay
# WDR9(2), sequence (Q9NSI6 1313-1418 limits assumed): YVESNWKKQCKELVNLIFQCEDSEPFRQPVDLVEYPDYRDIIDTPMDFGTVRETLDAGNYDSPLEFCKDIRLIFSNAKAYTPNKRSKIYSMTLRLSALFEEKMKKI
# From the text: as §2
# [1] = KD (BROMOscan), sheet prints no unit (nM)
smiles,measurement,setting,value
Cc1nnc2c3ccccc3c(N[C@@H](C)[C@H](c3ccccc3)N(C)C)nn12 [L-Moses],inhibition at 10 µM,ASH1L,-3%
same,inhibition at 10 µM,DNMT1,3%
same,inhibition at 10 µM,DNMT3A/3L,2%
same,inhibition at 10 µM,DNMT3B/3L,-1%
same,inhibition at 10 µM,DOT1L,1%
same,inhibition at 10 µM,MLL1 (Trimeric),20%
same,inhibition at 10 µM,MLL3 (pentameric),1%
same,inhibition at 10 µM,PRDM9,4%
same,inhibition at 10 µM,PRMT3,0%
same,inhibition at 10 µM,PRMT8,5%
same,inhibition at 10 µM,SETD8,-8%
same,inhibition at 10 µM,SETDB1,1%
same,inhibition at 10 µM,SUV39H1,-2%
same,inhibition at 10 µM,SUV39H2,5%
same,inhibition at 10 µM,SUV420H1,4%
same,inhibition at 10 µM,SUV420H2,6%
Cc1cc(=O)n(C)c2cc(N3C(=O)CC[C@H](NS(=O)(=O)CC(C)C)[C@H]3c3ccc(Cl)cc3)ccc12 [LP-99],Kd,ATAD2A; ATAD2A,> 50000 nM
same,Kd,BRD2(1); BRD2(1),> 50 µM
same,Kd,"WDR9(2); BROMOscan, WDR9(2)",> 50000 nM
COc1cc(C#N)ccc1S(=O)(=O)Nc1ccc2c(c1)cc(C)c(=O)n2C [NI 57],Kd,ATAD2A; ATAD2A,> 50000 nM
same,Kd,BRD2(1); BRD2(1),5.9 µM
same,Kd,WDR9(2); WDR9(2),> 50000 nM
CCCS(=O)(=O)c1nc(NC2CC2)cc(-c2ccc3c(ccn3C3CC(C)(C)NC(C)(C)C3)c2)n1 [NVS-CECR2-1],Kd,ATAD2A,> 30000 nM
same,Kd,BRD2(1),> 30 µM
same,Kd,WDR9(2),30000 nM
COc1cc2c(cc1NS(=O)(=O)c1ccc(Br)cc1C)n(C)c(=O)n2C [OF-1],Kd,ATAD2A; ATAD2A,> 50000 nM
same,Kd,BRD2(1); BRD2(1),7.4 µM
same,Kd,WDR9(2); WDR9(2),> 50000 nM
same,Kd,"WDR9(2); read-out: KD (BROMOscan), sheet prints no unit (nM)",> 30000 nM
O=C(C=CN1[C@H]2CC[C@@H]1c1ncnc(NC3CC3)c1C2)c1ccccc1O [PFI-3 D1],Kd,"ATAD2A; BROMOscan, ATAD2A",> 30000 nM
same,Kd,"BRD2(1); BROMOscan, BRD2(1)",> 30 µM
same,Kd,"WDR9(2); BROMOscan, WDR9(2)",> 30000 nM
O=C(C=CN1CC2CC1CN2c1ccccn1)c1ccccc1O (stereo not drawn) [PFI-3],Kd,ATAD2A; [1],> 30000 nM
same,Kd,"ATAD2A; KD, ATAD2A",> 100000 nM
same,Kd,WDR9(2); [1],> 30000 nM
same,Kd,"WDR9(2); KD, WDR9(2)",> 100000 nM
COc1ccc(CCc2nc3cc(-c4c(C)noc4C)ccc3n2C[C@H](C)N2CCOCC2)cc1Cl [SGC-CBP30],Kd,ATAD2A; [1],> 30000 nM
same,Kd,"ATAD2A; KD, BROMOscan, ATAD2A",> 100000 nM
same,Kd,BRD2(1),0.62 µM
same,Kd,"WDR9(2); KD, BROMOscan, WDR9(2)",12000 nM
O=C(O)c1ccccc1O [Salicylic Acid],Kd,BRD2(1),> 14000 µM
same,Kd,"WDR9(2); KD, WDR9(2)",> 1.4e+07 nM
